Laboratory results: ChEMBL document CHEMBL1139215, “Discovery of aminofurazan-azabenzimidazoles as inhibitors of Rho-kinase with high kinase selectivity and antihypertensive activity” (J Med Chem, 2007)
Activity calls are given as the source filed them. The calls are words filed in the database; no cut-off is given here.

Legend:
Homo sapiens [1] = species on record: Homo sapiens; assay: Selectivity for ROCK1 over p70S6K
[2] = target: Rho-associated protein kinase 1 (Homo sapiens, UniProt Q13464); assay: Inhibition of human ROCK1 in Sf9 cells; type: cell-based
Sequence of Rho-associated protein kinase 1 (Q13464 whole entry): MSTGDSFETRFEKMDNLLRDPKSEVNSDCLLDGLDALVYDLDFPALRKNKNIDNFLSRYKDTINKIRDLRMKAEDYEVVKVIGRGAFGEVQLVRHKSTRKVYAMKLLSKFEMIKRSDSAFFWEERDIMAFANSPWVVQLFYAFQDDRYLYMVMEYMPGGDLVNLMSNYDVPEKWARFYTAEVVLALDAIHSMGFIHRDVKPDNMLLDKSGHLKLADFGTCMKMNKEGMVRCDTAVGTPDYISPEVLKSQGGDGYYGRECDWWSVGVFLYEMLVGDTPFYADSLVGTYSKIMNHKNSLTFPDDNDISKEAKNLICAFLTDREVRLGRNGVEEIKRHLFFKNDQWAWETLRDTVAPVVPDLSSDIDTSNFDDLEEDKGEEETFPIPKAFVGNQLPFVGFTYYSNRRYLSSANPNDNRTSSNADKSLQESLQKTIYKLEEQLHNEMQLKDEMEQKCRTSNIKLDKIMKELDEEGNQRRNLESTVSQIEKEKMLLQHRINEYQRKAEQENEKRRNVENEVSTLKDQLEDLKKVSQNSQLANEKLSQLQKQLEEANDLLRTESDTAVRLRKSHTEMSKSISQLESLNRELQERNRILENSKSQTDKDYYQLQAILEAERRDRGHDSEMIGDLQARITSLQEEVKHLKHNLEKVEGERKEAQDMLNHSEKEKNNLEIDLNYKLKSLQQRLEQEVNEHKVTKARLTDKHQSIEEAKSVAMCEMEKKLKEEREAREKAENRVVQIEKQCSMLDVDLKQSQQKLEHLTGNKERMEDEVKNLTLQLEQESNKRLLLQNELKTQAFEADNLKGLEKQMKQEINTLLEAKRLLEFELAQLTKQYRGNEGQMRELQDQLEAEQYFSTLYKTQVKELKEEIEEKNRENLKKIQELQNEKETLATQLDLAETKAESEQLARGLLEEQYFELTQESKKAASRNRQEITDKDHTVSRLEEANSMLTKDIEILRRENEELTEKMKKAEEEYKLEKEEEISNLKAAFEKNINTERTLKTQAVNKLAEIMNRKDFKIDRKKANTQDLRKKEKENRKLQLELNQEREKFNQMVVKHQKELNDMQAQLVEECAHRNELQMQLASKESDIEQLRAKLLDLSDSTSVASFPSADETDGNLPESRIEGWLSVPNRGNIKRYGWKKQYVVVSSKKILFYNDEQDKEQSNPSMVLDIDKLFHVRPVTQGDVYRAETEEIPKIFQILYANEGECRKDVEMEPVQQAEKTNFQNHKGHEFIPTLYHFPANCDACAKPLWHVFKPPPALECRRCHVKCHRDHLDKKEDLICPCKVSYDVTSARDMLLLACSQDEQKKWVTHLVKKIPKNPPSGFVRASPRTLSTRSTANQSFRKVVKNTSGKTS

Homo sapiens [3] = species on record: Homo sapiens; assay: Selectivity for ROCK1 over MSK1
Homo sapiens [4] = species on record: Homo sapiens; assay: Selectivity for ROCK1 over CDK2
Homo sapiens [5] = species on record: Homo sapiens; assay: Selectivity for ROCK1 over RSK1
Homo sapiens [6] = species on record: Homo sapiens; assay: Selectivity for ROCK1 over GSK3-beta
[7] = Cmax in Sprague-Dawley rat at 2.2 mg/kg, po; type: ADME, organism-based; parameters: dose 2.2 mg/kg, route oral; settings: in vivo
[8] = Volume of distribution in Sprague-Dawley rat at 1 mg/kg, iv; type: ADME, organism-based; parameters: dose 1 mg/kg, route intravenous; settings: in vivo, read-out: Vdss
[9] = Oral bioavailability in Sprague-Dawley rat at 2.2 mg/kg, po; type: ADME, organism-based; settings: in vivo
[10] = Half life in Sprague-Dawley rat at 1 mg/kg, iv; type: ADME, organism-based; parameters: dose 1 mg/kg, route intravenous; settings: in vivo
[11] = Clearance in Sprague-Dawley rat at 1 mg/kg, iv; type: ADME, organism-based; parameters: dose 1 mg/kg, route intravenous; settings: in vivo
[12] = Cmax in Sprague-Dawley rat at 1 mg/kg, iv; type: ADME, organism-based; parameters: dose 1 mg/kg, route intravenous; settings: in vivo
Aorta = assay: Relaxation of phenylephrine contracted Sprague-Dawley rat aortic rings; type: functional, tissue-based
[13] = Volume of distribution in Sprague-Dawley rat at 1.1 mg/kg, iv; type: ADME, organism-based; parameters: dose 1.1 mg/kg, route intravenous; settings: in vivo, read-out: Vdss
[14] = Half life in Sprague-Dawley rat at 1.1 mg/kg, iv; type: ADME, organism-based; parameters: dose 1.1 mg/kg, route intravenous; settings: in vivo
[15] = Clearance in Sprague-Dawley rat at 1.1 mg/kg, iv; type: ADME, organism-based; parameters: dose 1.1 mg/kg, route intravenous; settings: in vivo
[16] = Cmax in Sprague-Dawley rat at 1.1 mg/kg, iv; type: ADME, organism-based; parameters: dose 1.1 mg/kg, route intravenous; settings: in vivo
[17] = Cmax in Sprague-Dawley rat at 3.3 mg/kg, po; type: ADME, organism-based; parameters: dose 3.3 mg/kg, route oral; settings: in vivo
[18] = Half life in Sprague-Dawley rat at 1.6 mg/kg, iv; type: ADME, organism-based; parameters: dose 1.6 mg/kg, route intravenous; settings: in vivo
[19] = Plasma concentration in spontaneously hypertensive rat at 3 mg/kg, po after 0.5 hrs; type: ADME, organism-based; parameters: dose 3 mg/kg, route oral
[20] = Volume of distribution in Sprague-Dawley rat at 1.6 mg/kg, iv; type: ADME, organism-based; parameters: dose 1.6 mg/kg, route intravenous; settings: in vivo, read-out: Vdss
Rattus norvegicus [21] = assay: Reduction of mean arterial blood pressure in spontaneous hypertensive rat at 1 mg/kg, po; type: functional, organism-based; parameters: dose 1 mg/kg
Rattus norvegicus [22] = assay: Reduction of mean arterial blood pressure in spontaneous hypertensive rat at 0.3 mg/kg, po; type: functional, organism-based; parameters: dose 0.3 mg/kg
Rattus norvegicus [23] = assay: Reduction of mean arterial blood pressure in spontaneous hypertensive rat at 3 mg/kg, po; type: functional, organism-based; parameters: dose 3 mg/kg
[24] = Plasma concentration in spontaneously hypertensive rat at 3 mg/kg, po after 8 hrs; type: ADME, organism-based; parameters: dose 3 mg/kg, route oral
[25] = Plasma concentration in spontaneously hypertensive rat at 3 mg/kg, po after 1 hr; type: ADME, organism-based; parameters: dose 3 mg/kg, route oral
[26] = Plasma concentration in spontaneously hypertensive rat at 3 mg/kg, po after 2 hrs; type: ADME, organism-based; parameters: dose 3 mg/kg, route oral
[27] = Plasma concentration in spontaneously hypertensive rat at 3 mg/kg, po after 4 hrs; type: ADME, organism-based; parameters: dose 3 mg/kg, route oral
[28] = Oral bioavailability in Sprague-Dawley rat at 3.3 mg/kg, po; type: ADME, organism-based; settings: in vivo
[29] = Clearance in Sprague-Dawley rat at 1.6 mg/kg, iv; type: ADME, organism-based; parameters: dose 1.6 mg/kg, route intravenous; settings: in vivo
[30] = Cmax in Sprague-Dawley rat at 1.6 mg/kg, iv; type: ADME, organism-based; parameters: dose 1.6 mg/kg, route intravenous; settings: in vivo
[31] = Half life in Sprague-Dawley rat at 2.1 mg/kg, iv; type: ADME, organism-based; parameters: dose 2.1 mg/kg, route intravenous; settings: in vivo
[32] = Cmax in Sprague-Dawley rat at 2.1 mg/kg, iv; type: ADME, organism-based; parameters: dose 2.1 mg/kg, route intravenous; settings: in vivo
[33] = Oral bioavailability in Sprague-Dawley rat at 2.1 mg/kg, po; type: ADME, organism-based; settings: in vivo
[34] = Clearance in Sprague-Dawley rat at 2.1 mg/kg, iv; type: ADME, organism-based; parameters: dose 2.1 mg/kg, route intravenous; settings: in vivo
[35] = Volume of distribution in Sprague-Dawley rat at 2.1 mg/kg, iv; type: ADME, organism-based; parameters: dose 2.1 mg/kg, route intravenous; settings: in vivo, read-out: Vdss
[36] = Cmax in Sprague-Dawley rat at 2.1 mg/kg, po; type: ADME, organism-based; parameters: dose 2.1 mg/kg, route oral; settings: in vivo
[37] = Oral bioavailability in Sprague-Dawley rat at 2 mg/kg, po; type: ADME, organism-based; settings: in vivo
[38] = Clearance in Sprague-Dawley rat at 0.85 mg/kg, iv; type: ADME, organism-based; parameters: dose 0.85 mg/kg, route intravenous; settings: in vivo
[39] = Volume of distribution in Sprague-Dawley rat at 0.85 mg/kg; type: ADME, organism-based; parameters: dose 0.85 mg/kg; settings: in vivo, read-out: Vdss
[40] = Cmax in Sprague-Dawley rat at 2 mg/kg, po; type: ADME, organism-based; parameters: dose 2 mg/kg, route oral; settings: in vivo
[41] = Cmax in Sprague-Dawley rat at 0.85 mg/kg, iv; type: ADME, organism-based; parameters: dose 0.85 mg/kg, route intravenous; settings: in vivo
[42] = Half life in Sprague-Dawley rat at 0.85 mg/kg, iv; type: ADME, organism-based; parameters: dose 0.85 mg/kg, route intravenous; settings: in vivo
[43] = Cmax in Sprague-Dawley rat at 2.4 mg/kg, iv; type: ADME, organism-based; parameters: dose 2.4 mg/kg, route intravenous; settings: in vivo
[44] = Clearance in Sprague-Dawley rat at 2.4 mg/kg, iv; type: ADME, organism-based; parameters: dose 2.4 mg/kg, route intravenous; settings: in vivo
[45] = Half life in Sprague-Dawley rat at 2.4 mg/kg, iv; type: ADME, organism-based; parameters: dose 2.4 mg/kg, route intravenous; settings: in vivo
[46] = Volume of distribution in Sprague-Dawley rat at 2.4 mg/kg, iv; type: ADME, organism-based; parameters: dose 2.4 mg/kg, route intravenous; settings: in vivo, read-out: Vdss
[47] = Cmax in Sprague-Dawley rat at 3.7 mg/kg, po; type: ADME, organism-based; parameters: dose 3.7 mg/kg, route oral; settings: in vivo
[48] = Volume of distribution in Sprague-Dawley rat at 1.2 mg/kg, iv; type: ADME, organism-based; parameters: dose 1.2 mg/kg, route intravenous; settings: in vivo, read-out: Vdss
[49] = Half life in Sprague-Dawley rat at 1.2 mg/kg, iv; type: ADME, organism-based; parameters: dose 1.2 mg/kg, route intravenous; settings: in vivo
[50] = Cmax in Sprague-Dawley rat at 1.2 mg/kg, iv; type: ADME, organism-based; parameters: dose 1.2 mg/kg, route intravenous; settings: in vivo
[51] = Clearance in Sprague-Dawley rat at 1.2 mg/kg, iv; type: ADME, organism-based; parameters: dose 1.2 mg/kg, route intravenous; settings: in vivo
[52] = Oral bioavailability in Sprague-Dawley rat at 3.7 mg/kg, po; type: ADME, organism-based; settings: in vivo

SMILES	Selectivity ratio (Homo sapiens [1])	IC50 [2] [nM]	Selectivity ratio (Homo sapiens [3])	Selectivity ratio (Homo sapiens [4])	Selectivity ratio (Homo sapiens [5])	Selectivity ratio (Homo sapiens [6])	IC50 (Aorta) [nM]	other results
CCn1c(-c2nonc2N)nc2cnc(Oc3ccccc3)cc21	18	30	1.5	> 130	10	> 500	–	–
CCn1c(-c2nonc2N)nc2cnc(OC)cc21	15	4.4	2.3	55	18	250	–	–
CCn1c(-c2nonc2N)nc2cnc(Oc3cccc(S(C)(=O)=O)c3)cc21	0.7	33	3.9	–	2.7	150	–	–
CCn1c(-c2nonc2N)nc2cnc(Oc3ccc(NC(C)=O)cc3)cc21	9.2	90	9.7	110	12	> 160	–	–
CCn1c(-c2nonc2N)nc2cnc(Oc3cccc(NC(=O)c4ccc(OCCN5CCOCC5)cc4)c3)cc21 [GSK-269962A]	–	–	–	–	–	–	35	Cmax [17]: 800 ng/mL; half-life [18]: 2.2 h; concentration at 0.5 h [19]: 280 ng/mL; Vd [20]: 1.3 L/kg; Activity (Rattus norvegicus [21]): Active; Activity (Rattus norvegicus [22]): Active; Activity (Rattus norvegicus [23]): Active; concentration at 8 h [24]: 88 ng/mL; concentration at 1 h [25]: 330 ng/mL; concentration at 2 h [26]: 290 ng/mL; concentration at 4 h [27]: 150 ng/mL; bioavailability [28]: 78%; clearance [29]: 7.6 mL/min/kg; Cmax [30]: 1270 ng/mL
CCn1c(-c2nonc2N)nc2cnc(Oc3cccc(C(C)=O)c3)cc21	6.2	13	12	460	12	> 1000	–	–
CCn1c(-c2nonc2N)nc2cnc(Oc3cccc(N)c3)cc21	13	18	9.4	320	8.9	300	–	–
CCn1c(-c2nonc2N)nc2cnc(Oc3cccc(NC(=O)c4ccc(N(C)C)cc4)c3)cc21 [GSK-248233A]	7	2	13	–	45	–	106	bioavailability [37]: 11%; clearance [38]: 0.14 mL/min/kg; Vd [39]: 0.09 L/kg; Cmax [40]: 3620 ng/mL; Cmax [41]: 18600 ng/mL; half-life [42]: 8.6 h
CCn1c(-c2nonc2N)nc2cnccc21	3.1	19	0.18	22	0.63	53	–	–
CCn1c(-c2nonc2N)nc2cnc(Oc3cccc(NC(=O)c4ccccc4)c3)cc21	3	4	2.2	–	3.8	–	106	Cmax [47]: 6940 ng/mL; Vd [48]: 0.16 L/kg; half-life [49]: 9.6 h; Cmax [50]: 11700 ng/mL; clearance [51]: 0.18 mL/min/kg; bioavailability [52]: 35%

Second part, led by results:

Selectivity ratio (Homo sapiens [1])	IC50 [2] [nM]	Selectivity ratio (Homo sapiens [3])	Selectivity ratio (Homo sapiens [4])	Selectivity ratio (Homo sapiens [5])	Selectivity ratio (Homo sapiens [6])	IC50 (Aorta) [nM]	SMILES	other results
14	1.8	2.8	> 1000	18	> 1000	–	CCn1c(-c2nonc2N)nc2cnc(Oc3cccc(NC(C)=O)c3)cc21	–
> 3	≤ 1	> 52	–	> 80	–	74	CCn1c(-c2nonc2N)nc2cnc(Oc3cccc(NC(=O)c4ccc(CN(C)C)cc4)c3)cc21	Cmax [7]: 160 ng/mL; Vd [8]: 2.4 L/kg; bioavailability [9]: 47%; half-life [10]: 1.9 h; clearance [11]: 30 mL/min/kg; Cmax [12]: 630 ng/mL
> 17	≤ 1	> 70	–	> 70	–	107	CCn1c(-c2nonc2N)nc2cnc(Oc3cccc(NC(=O)c4ccc(CN)cc4)c3)cc21	Cmax [7]: 255 ng/mL; Vd [8]: 0.11 L/kg; bioavailability [9]: 4%; half-life [10]: 1.4 h; clearance [11]: 2.3 mL/min/kg; Cmax [12]: 9900 ng/mL
> 10	≤ 1	> 35	–	> 120	–	102	CCn1c(-c2nonc2N)nc2cnc(Oc3cccc(NC(=O)c4ccc(CN5CCOCC5)cc4)c3)cc21	Vd [13]: 1.1 L/kg; Cmax [7]: 684 ng/mL; half-life [14]: 1.4 h; clearance [15]: 10.7 mL/min/kg; bioavailability [9]: 64%; Cmax [16]: 1100 ng/mL
> 10	≤ 1	> 26	–	> 60	–	59	CCn1c(-c2nonc2N)nc2cnc(Oc3cccc(NC(=O)c4ccc(N5CCOCC5)cc4)c3)cc21	half-life [31]: 0.9 h; Cmax [32]: 1500 ng/mL; bioavailability [33]: 23%; clearance [34]: 8.6 mL/min/kg; Vd [35]: 0.57 L/kg; Cmax [36]: 890 ng/mL
> 3	≤ 1	> 65	–	> 80	–	79	CCn1c(-c2nonc2N)nc2cnc(Oc3cccc(NC(=O)c4ccc(OCCN(C)C)cc4)c3)cc21	Cmax [17]: 410 ng/mL; Cmax [43]: 410 ng/mL; clearance [44]: 121 mL/min/kg; half-life [45]: 2.1 h; Vd [46]: 8.9 L/kg; bioavailability [28]: 40%
